Test [1] deals with T1, biotinylated wild-type menin and MLL-AF9 fusion protein (menin/MLL binding) (Homo sapiens, UniProt O00255).
T1 construct: made in house; host or cells: menin: E. coli; MLL-AF9-FLAG: HEK293 cells, used as cleared lysate
T1 sequence (O00255 1-610): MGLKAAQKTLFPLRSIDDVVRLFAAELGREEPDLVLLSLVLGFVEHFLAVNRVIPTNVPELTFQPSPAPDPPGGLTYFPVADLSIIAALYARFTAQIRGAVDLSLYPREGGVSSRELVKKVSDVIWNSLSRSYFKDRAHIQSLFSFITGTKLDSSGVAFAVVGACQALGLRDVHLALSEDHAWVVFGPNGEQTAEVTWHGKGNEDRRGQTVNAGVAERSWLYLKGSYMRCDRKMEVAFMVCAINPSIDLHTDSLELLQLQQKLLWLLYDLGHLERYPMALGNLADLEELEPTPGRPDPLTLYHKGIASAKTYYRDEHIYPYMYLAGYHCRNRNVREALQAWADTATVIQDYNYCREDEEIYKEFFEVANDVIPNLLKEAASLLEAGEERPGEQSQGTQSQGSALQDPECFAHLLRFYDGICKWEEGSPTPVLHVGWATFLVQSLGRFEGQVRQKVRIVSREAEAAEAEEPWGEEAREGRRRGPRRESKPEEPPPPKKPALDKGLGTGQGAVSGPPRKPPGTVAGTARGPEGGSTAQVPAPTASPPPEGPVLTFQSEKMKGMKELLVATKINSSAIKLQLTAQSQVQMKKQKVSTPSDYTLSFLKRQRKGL
Put plainly: Assay 1: menin/MLL binding AlphaLISA assay, wild-type menin. Particulars: Table 30; column head does not say wild-type or mutated menin. In outline:
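Compound was preincubated 30 min at room temperature with biotinylated menin (5 nM) and MLL-AF9-FLAG lysate from HEK293 cells, pH 7.4 buffer with 5% DMSO and DTT. Bead-based Alpha signal after 60 min with streptavidin donor and anti-FLAG acceptor beads; four-parameter logistic fit gave IC50.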

Test [2] deals with human acute monocytic leukemia cell line MV-4-11. Put plainly: Assay 2: cell proliferation assay (ATP quantitation, CellTiter-Glo), MV-4-11. The test is classed as cell-based. Particulars: Homo sapiens, MV4-11, 72 h, MV-4-11 cells. The procedure, abridged:
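Read-out is CellTiter-Glo luminescence quantifying ATP. Compound exposure lasted 72 h at 37° C., 5% CO2, with 1.67×10^4 MV-4-11 cells per well in 10% FBS medium, alongside HL-60 toxicity-control cells.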
(Cellular ATP, detected with luciferase, serves as a proxy for viable cell number.)

pEC50, pIC50: −log10 of the molar value. Where only a bound is given, the exact number is not on record here.

As to `CC(C)N(C)C(=O)c1cc(F)ccc1Oc1cncnc1N1CCC2(CCN(Cc3ccc4cn[nH]c4c3)C2)C1` (stereo not drawn) [Example 145, 2-((4-(7-((1H-indazol-6-yl)methyl)-2,7-diazaspiro[4.4]nonan-2-yl)pyrimidin-5-yl)oxy)-5-fluoro-N-isopropyl-N-methylbenzamide], the pIC50 in test [1] is > 7.00. In addition, in test [2], the pEC50 is 6.00 to 7.00.

As to `CC(C)N(C)C(=O)c1cc(F)ccc1Oc1cncnc1N1CCC2(CCN(Cc3ccc4c(C#N)n[nH]c4c3)C2)C1` (stereo not drawn) [Example 146, 2-((4-(7-((3-cyano-1H-indazol-6-yl)methyl)-2,7-diazaspiro[4.4]nonan-2-yl)pyrimidin-5-yl)oxy)-5-fluoro-N-isopropyl-N-methylbenzamide], the pIC50 in test [1] is > 7.00. The same compound showed a pEC50 in test [2] of 6.00 to 7.00.

Regarding `CC(C)(C)OC(=O)N[C@H]1CC[C@H](CN2CCC3(CCN(c4ncncc4Oc4ccc(F)cc4OC4CCCC4)C3)C2)CC1` (stereo partly drawn) [Example 147, tert-butyl ((1r,4r)-4-((7-(5-(2-(cyclopentyloxy)-4-fluorophenoxy)pyrimidin-4-yl)-2,7-diazaspiro[4.4]nonan-2-yl)methyl)cyclohexyl) carbamate], the pIC50 in test [1] was > 7.00. Also, in test [2], the negative-log EC50 (pEC50) was ≤ 6.00.

Regarding `CC(C)c1ncncc1-c1cc(F)ccc1Oc1cncnc1N1CC2(CCN(C(=O)Cc3ccc(C#N)cc3)C2)C1` [Example 149, 4-(2-(2-(5-(4-fluoro-2-(4-isopropylpyrimidin-5-yl)phenoxy)pyrimidin-4-yl)-2,6-diazaspiro[3.4]octan-6-yl)-2-oxoethyl)benzonitrile], in test [1], the pIC50 is > 7.00. Also, in test [2], the pEC50 is > 7.00.

For the compound `CC(C)c1ncncc1-c1cc(F)ccc1Oc1cncnc1N1CCC2(CCN(Cc3ccc4c(c3)[nH]c(=O)n4C)C2)C1` (stereo not drawn) [Example 150, 5-((7-(5-(4-fluoro-2-(4-isopropylpyrimidin-5-yl)phenoxy)pyrimidin-4-yl)-2,7-diazaspiro[4.4]nonan-2-yl)methyl)-1-methyl-1,3-dihydro-2H-benzo[d]imidazol-2-one], in test [1], the pIC50 was > 7.00. Further, the pEC50 in test [2] is > 7.00.

For `N#Cc1ccc(-c2cc(F)ccc2Oc2cncnc2N2CC3(CN(CC4CCC(O)CC4)C3)C2)c(C2CC2)c1` (stereo not drawn) [Example 151, 2-cyclopropyl-5′-fluoro-2′-((4-(6-((4-hydroxycyclohexyl)methyl)-2,6-diazaspiro[3.3]heptan-2-yl)pyrimidin-5-yl)oxy)-[1,1′-biphenyl]-4-carbonitrile], the pIC50 in test [1] is > 7.00. In test [2], the pEC50 was ≤ 6.00.

Turning to `CC(C)c1ncncc1-c1cc(F)ccc1Oc1cncnc1N1CC2(CC(NCc3ccc(C#N)cc3)C2)C1` [Example 152, 4-(((2-(5-(4-fluoro-2-(4-isopropylpyrimidin-5-yl)phenoxy)pyrimidin-4-yl)-2-azaspiro[3.3]heptan-6-yl)amino)methyl) benzonitrile], the pIC50 in test [1] is > 7.00. In test [2], the pEC50 is > 7.00.

In the case of `CC1CCC(C)N1C(=O)c1cc(F)ccc1Oc1cncnc1N1CCC2(CCN(Cc3ccc4[nH]c(=O)[nH]c4c3)C2)C1` (stereo not drawn) [Example 153, 5-((7-(5-(2-(2,5-dimethylpyrrolidine-1-carbonyl)-4-fluorophenoxy)pyrimidin-4-yl)-2,7-diazaspiro[4.4]nonan-2-yl)methyl)-1,3-dihydro-2H-benzo[d]imidazol-2-one], in test [1], the pIC50 is > 7.00. In test [2], this compound showed a pEC50 of 6.00 to 7.00.

Regarding `O=C(c1cc(F)ccc1Oc1cncnc1N1CCC2(CCN(Cc3ccc4[nH]c(=O)[nH]c4c3)C2)C1)N1CCCC1` (stereo not drawn) [Example 154, 5-((7-(5-(4-fluoro-2-(pyrrolidine-1-carbonyl)phenoxy)pyrimidin-4-yl)-2,7-diazaspiro [4.4]nonan-2-yl)methyl)-1,3-dihydro-2H-benzo[d]imidazol-2-one], the pIC50 in test [1] was > 7.00. The same compound showed a pEC50 in test [2] of 6.00 to 7.00.

Turning to `O=C(c1cc(F)ccc1Oc1cncnc1N1CCC2(CCN(Cc3ccc4[nH]c(=O)[nH]c4c3)C2)C1)N1CCOCC1` (stereo not drawn) [Example 155, 5-((7-(5-(4-fluoro-2-(morpholine-4-carbonyl)phenoxy)pyrimidin-4-yl)-2,7-diaza-spiro[4.4]nonan-2-yl)methyl)-1,3-dihydro-2H-benzo[d]imidazol-2-one], in test [1], the pIC50 is > 7.00. The same compound showed a pEC50 in test [2] of 6.00 to 7.00.

In the case of `CCN(C(=O)C(C)C)c1cc(F)ccc1Oc1cncnc1N1CC2(CCN(CC3CCOCC3)C2)C1` [Example 156, N-ethyl-N-(5-fluoro-2-((4-(6-((tetrahydro-2H-pyran-4-yl)methyl)-2,6-diazaspiro[3.4]octan-2-yl)pyrimidin-5-yl)oxy)phenyl)iso-butyramide], in test [1], the pIC50 was > 7.00. The same compound showed a pEC50 in test [2] of 6.00 to 7.00.

With `CCN(C(=O)C(C)C)c1cc(F)ccc1Oc1cncnc1N1CC2(CCN(CC3CCCCC3)C2)C1` [Example 158, N-(2-((4-(6-(cyclohexylmethyl)-2,6-diazaspiro[3.4]octan-2-yl)pyrimidin-5-yl)oxy)-5-fluorophenyl)-N-ethylisobutyramide], the pIC50 in test [1] is > 7.00. The pEC50 in test [2] was 6.00 to 7.00.

In the case of `CC(C)c1ncncc1-c1cc(F)ccc1Oc1cncnc1N1CC2(CC(NCc3ccccc3)CO2)C1` (stereo not drawn) [Example 159, N-benzyl-2-(5-(4-fluoro-2-(4-isopropylpyrimidin-5-yl)phenoxy)pyrimidin-4-yl)-5-oxa-2-azaspiro[3.4]octan-7-amine], the pIC50 in test [1] is > 7.00. In addition, the pEC50 in test [2] was 6.00 to 7.00.

As to `CC(C)c1ncncc1-c1cc(F)ccc1Oc1cncnc1N1CCC2(CCN(Cc3ccc4[nH]c(=O)[nH]c4c3)C2)C1` (stereo not drawn) [Example 160, 5-((7-(5-(4-fluoro-2-(4-isopropylpyrimidin-5-yl)phenoxy)pyrimidin-4-yl)-2,7-diazaspiro[4.4]nonan-2-yl)methyl)-1,3-dihydro-2H-benzo[d]imidazol-2-one], the pIC50 in test [1] is > 7.00. In addition, the pEC50 in test [2] was > 7.00.

On to `C=C(C)c1ccccc1-c1cc(F)ccc1Oc1cncnc1N1CCC2(CCN(Cc3ccc4[nH]c(=O)[nH]c4c3)C2)C1` (stereo not drawn) [Example 161, 5-((7-(5-((5-fluoro-2′-(prop-1-en-2-yl)-[1,1′-biphenyl]-2-yl)oxy)pyrimidin-4-yl)-2,7-diazaspiro[4.4]nonan-2-yl)methyl)-1,3-dihydro-2H-benzo[d]imidazol-2-one], for which, in test [1], the pIC50 was > 7.00. Also, the pEC50 in test [2] is > 7.00.

With `CC(C)Oc1ncccc1-c1cc(F)ccc1Oc1cncnc1N1CC2(CN(CC3CCOCC3)C2)C1` [Example 162, 2-(5-(4-fluoro-2-(2-isopropoxypyridin-3-yl)phenoxy)pyrimidin-4-yl)-6-((tetrahydro-2H-pyran-4-yl)methyl)-2,6-diazaspiro[3.3]heptane], the pIC50 in test [1] was > 7.00. In test [2], this compound showed a pEC50 of 6.00 to 7.00.

Turning to `CC(C)N(C)C(=O)c1cc(F)ccc1Oc1cncnc1N1CCC2(CCN(Cc3ccc4c(c3)[nH]c(=O)n4C)C2)C1` (stereo not drawn) [Example 163, 5-fluoro-N-isopropyl-N-methyl-2-((4-(7-((1-methyl-2-oxo-2,3-dihydro-1H-benzo[d]imidazol-5-yl)methyl)-2,7-diazaspiro[4.4]nonan-2-yl)pyrimidin-5-yl)oxy)benzamide], the pIC50 in test [1] is > 7.00. This compound showed a negative logarithm of the EC50 (pEC50) in test [2] of 6.00 to 7.00.

Regarding `CCOC(=O)N(C)c1cc(F)ccc1Oc1cncnc1N1CCC2(CCN(Cc3ccc4[nH]c(=O)[nH]c4c3)C2)C1` (stereo not drawn) [Example 164, ethyl (5-fluoro-2-((4-(7-((2-oxo-2,3-dihydro-1H-benzo[d]imidazol-5-yl)methyl)-2,7-diazaspiro[4.4]nonan-2-yl)pyrimidin-5-yl)oxy)phenyl) (methyl)carbamate], the pIC50 in test [1] was > 7.00. This compound gave a pEC50 in test [2] of 6.00 to 7.00.

Turning to `CN(C(=O)c1cc(F)ccc1Oc1cncnc1N1CCC2(CCN(Cc3ccc4[nH]c(=O)[nH]c4c3)C2)C1)C1CC1` (stereo not drawn) [Example 165, N-cyclopropyl-5-fluoro-N-methyl-2-((4-(7-((2-oxo-2,3-dihydro-1H-benzo[d]imidazol-5-yl)methyl)-2,7-diazaspiro[4.4]nonan-2-yl)pyrimidin-5-yl)oxy)benzamide], in test [1], the pIC50 was > 7.00. Also, the pEC50 in test [2] was ≤ 6.00.

`CN(C(=O)c1cc(F)ccc1Oc1cncnc1N1CCC2(CCN(Cc3ccc4[nH]c(=O)[nH]c4c3)C2)C1)c1ccccc1` (stereo not drawn) [Example 166, 5-fluoro-N-methyl-2-((4-(7-((2-oxo-2,3-dihydro-1H-benzo[d]imidazol-5-yl)methyl)-2,7-diazaspiro[4.4]nonan-2-yl)pyrimidin-5-yl)oxy)-N-phenylbenzamide]: in test [1], the pIC50 is > 7.00. This compound gave a pEC50 in test [2] of 6.00 to 7.00.

Regarding `CC(C)N(C)C(=O)c1cc(F)ccc1Oc1cncnc1N1CC2(CN(CC3CCCCC3)C2)C1` [Example 167, 2-((4-(6-(cyclohexylmethyl)-2,6-diazaspiro[3.3]heptan-2-yl)pyrimidin-5-yl)oxy)-5-fluoro-N-isopropyl-N-methylbenzamide], the pIC50 in test [1] was > 7.00. In addition, in test [2], the pEC50 is 6.00 to 7.00.

As a reminder, the pIC50 is the negative decadic logarithm of the IC50, by convention in mol/L. A high value points to a small IC50. As a reminder, the pEC50 is −log10 of the EC50, conventionally taken in molar units.

The values above are taken from patent US12312359B2 (Vitae Pharmaceuticals, LLC, priority 2016, dated 2025).
